Measured values as given in US20250171437A1 (Agios Pharmaceuticals,Inc., priority 2022, published 2025).

The molecules below were run against T1, human PAH with the R408W mutation (A375 R408W cells) (Homo sapiens, UniProt P00439, R408W) (assay: Cell Based Phenylalanine Flux Assay). Conditions: A375 R408W cells; 24 hrs with compound, then 20 μM sepiapterin and 800 μM 13C9,15N-Phenylalanine for 4 hours; 13C-Tyrosine by LC-MS; average where tested multiple times.
T1 construct: expressed in transfected cells
T1 sequence (P00439 1-452 R408W): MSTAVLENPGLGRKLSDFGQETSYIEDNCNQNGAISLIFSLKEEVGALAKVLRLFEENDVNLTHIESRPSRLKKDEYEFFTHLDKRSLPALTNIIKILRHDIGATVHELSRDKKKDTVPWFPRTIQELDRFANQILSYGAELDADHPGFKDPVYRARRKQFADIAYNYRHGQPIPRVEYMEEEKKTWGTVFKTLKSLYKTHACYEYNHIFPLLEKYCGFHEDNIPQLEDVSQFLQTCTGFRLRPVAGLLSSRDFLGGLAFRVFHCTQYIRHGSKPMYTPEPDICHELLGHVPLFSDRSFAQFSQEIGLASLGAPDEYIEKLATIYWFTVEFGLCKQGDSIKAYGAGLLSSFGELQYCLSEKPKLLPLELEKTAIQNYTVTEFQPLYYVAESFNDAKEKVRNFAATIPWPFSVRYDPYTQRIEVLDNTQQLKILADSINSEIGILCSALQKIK
Summary of the method: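 A375 cells stably expressing human PAH R408W treated 24 h at 37° C with a 10-point 2-fold dose curve in duplicate, 0.5% DMSO. Then 20 μM sepiapterin and 800 μM 13C9,15N-Phe added for 4 h; 13C-Tyr in media measured by LC-MS to give AC50.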

| SMILES | AC50 [nM] |
| --- | --- |
| O=C(c1ocnc1C(F)F)N1CCc2[nH]cnc2[C@H]1c1nc2ccc(Br)cc2o1 [Example 145, (S)-(4-(6-bromobenzo[d]oxazol-2-yl)-6,7-dihydro-1H-imidazo[4,5-c]pyridin-5(4H)-yl)(4-(difluoromethyl)oxazol-5-yl)methanone] | ≤ 500 |
| CC(C)(O)c1nc(Br)c(C(=O)N2CCc3[nH]cnc3[C@@H]2c2nc3cccc(F)c3o2)o1 [Example 264, (R)-(4-bromo-2-(2-hydroxypropan-2-yl)oxazol-5-yl)(4-(7-fluorobenzo[d]oxazol-2-yl)-6,7-dihydro-1H-imidazo[4,5-c]pyridin-5(4H)-yl)methanone] | 500 to 1000 |
| O=C(c1ocnc1C(F)F)N1CCc2[nH]cnc2[C@@H]1c1nc2ccc(F)cc2o1 [Example 164, (R)-(4-(difluoromethyl)oxazol-5-yl)(4-(6-fluorobenzo[d]oxazol-2-yl)-6,7-dihydro-1H-imidazo[4,5-c]pyridin-5(4H)-yl)methanone] | 1000 to 5000 |
| Cc1ccc2oc([C@@H]3c4nc[nH]c4CCN3C(=O)c3ccnn3C(F)F)nc2c1 [Example 313, (S)-(1-(difluoromethyl)-1H-pyrazol-5-yl)(4-(5-methylbenzo[d]oxazol-2-yl)-6,7-dihydro-1H-imidazo[4,5-c]pyridin-5(4H)-yl)methanone] | ≤ 500 |
| O=C(CC1CC1)N1CCc2[nH]cnc2[C@@H]1c1nc2cc(F)ccc2o1 [Example 38, (R)-2-cyclopropyl-1-(4-(5-fluorobenzo[d]oxazol-2-yl)-6,7-dihydro-1H-imidazo[4,5-c]pyridin-5(4H)-yl)ethanone] | 1000 to 5000 |
| CN(C)C(C)(C)c1nc(C(F)F)c(C(=O)N2CCc3[nH]cnc3[C@@H]2c2nc3cc(F)ccc3o2)o1 [Example 292, (R)-(4-(difluoromethyl)-2-(2-(dimethylamino)propan-2-yl)oxazol-5-yl)(4-(5-fluorobenzo[d]oxazol-2-yl)-6,7-dihydro-1H-imidazo[4,5-c]pyridin-5(4H)-yl)methanone] | ≤ 500 |
| O=C(c1oc(C2(O)CC2)nc1C(F)F)N1CCc2[nH]cnc2[C@H]1c1nc2cccc(F)c2o1 [Example 214, (S)-(4-(difluoromethyl)-2-(1-hydroxycyclopropyl)oxazol-5-yl)(4-(7-fluorobenzo[d]oxazol-2-yl)-6,7-dihydro-1H-imidazo[4,5-c]pyridin-5(4H)-yl)methanone] | ≤ 500 |
| O=C(c1ccnn1C(F)F)N1CCc2[nH]cnc2[C@@H]1c1nc2c(F)cccc2o1 [Example 202, (R)-(1-(difluoromethyl)-1H-pyrazol-5-yl)(4-(4-fluorobenzo[d]oxazol-2-yl)-6,7-dihydro-1H-imidazo[4,5-c]pyridin-5(4H)-yl)methanone] | 1000 to 5000 |

Other lines, results leading:

| AC50 [nM] | SMILES |
| --- | --- |
| 1000 to 5000 | Cc1c(F)ccc2oc([C@H]3c4nc[nH]c4CCN3C(=O)c3ocnc3C(F)F)nc12 [Example 721, (R)-(4-(difluoromethyl)oxazol-5-yl)(4-(5-fluoro-4-methylbenzo[d]oxazol-2-yl)-6,7-dihydro-1H-imidazo[4,5-c]pyridin-5(4H)-yl)methanone] |
| 1000 to 5000 | Cc1cc(C(=O)N2CCc3[nH]cnc3[C@@H]2c2nc3cccc(F)c3o2)n(C)n1 [Example 770, (R)-(1,3-dimethyl-1H-pyrazol-5-yl)(4-(7-fluorobenzo[d]oxazol-2-yl)-6,7-dihydro-1H-imidazo[4,5-c]pyridin-5(4H)-yl)methanone] |
| ≤ 500 | Cc1cccc2oc([C@@H]3c4nc[nH]c4CCN3C(=O)c3nc(C(F)F)nn3C)nc12 [Example 447, (S)-(3-(difluoromethyl)-1-methyl-1H-1,2,4-triazol-5-yl)(4-(4-methylbenzo[d]oxazol-2-yl)-6,7-dihydro-1H-imidazo[4,5-c]pyridin-5(4H)-yl)methanone] |
| ≤ 500 | Cc1ccc(F)c2nc([C@@H]3c4nc[nH]c4CCN3C(=O)c3ocnc3C(F)F)oc12 [Example 743, (S)-(4-(difluoromethyl)oxazol-5-yl)(4-(4-fluoro-7-methylbenzo[d]oxazol-2-yl)-6,7-dihydro-1H-imidazo[4,5-c]pyridin-5(4H)-yl)methanone] |
| ≤ 500 | COc1cccc2nc([C@@H]3c4nc[nH]c4CCN3C(=O)c3ocnc3C(F)F)oc12 [Example 457, (S)-(4-(difluoromethyl)oxazol-5-yl)(4-(7-methoxybenzo[d]oxazol-2-yl)-6,7-dihydro-1H-imidazo[4,5-c]pyridin-5(4H)-yl)methanone] |
| 500 to 1000 | COc1ccc2oc([C@@H]3c4nc[nH]c4CCN3C(=O)c3nc(C(F)F)nn3C)nc2c1 [Example 549, (S)-(3-(difluoromethyl)-1-methyl-1H-1,2,4-triazol-5-yl)(4-(5-methoxybenzo[d]oxazol-2-yl)-6,7-dihydro-1H-imidazo[4,5-c]pyridin-5(4H)-yl)methanone] |
| 1000 to 5000 | CN1CCN(c2nc(C(F)F)c(C(=O)N3CCc4[nH]cnc4[C@@H]3c3nc4cc(F)ccc4o3)o2)CC1 [Example 404, (R)-(4-(difluoromethyl)-2-(4-methylpiperazin-1-yl)oxazol-5-yl)(4-(5-fluorobenzo[d]oxazol-2-yl)-6,7-dihydro-1H-imidazo[4,5-c]pyridin-5(4H)-yl)methanone] |
| 1000 to 5000 | Cc1cc(F)cc2nc([C@H]3c4nc[nH]c4CCN3C(=O)c3oc(C(C)(C)O)nc3C(F)F)oc12 [Example 656, (R)-(4-(difluoromethyl)-2-(2-hydroxypropan-2-yl)oxazol-5-yl)(4-(5-fluoro-7-methylbenzo[d]oxazol-2-yl)-6,7-dihydro-1H-imidazo[4,5-c]pyridin-5(4H)-yl)methanone] |
| 1000 to 5000 | O=C(c1oc(-c2cnccn2)nc1C(F)F)N1CCc2[nH]cnc2[C@@H]1c1nc2cc(F)ccc2o1 [Example 528, (R)-(4-(difluoromethyl)-2-(pyrazin-2-yl)oxazol-5-yl)(4-(5-fluorobenzo[d]oxazol-2-yl)-6,7-dihydro-1H-imidazo[4,5-c]pyridin-5(4H)-yl)methanone] |
| ≤ 500 | COc1cccc2nc([C@@H]3c4nc[nH]c4CCN3C(=O)c3cc(C(F)F)nn3C)oc12 [Example 777, (S)-(3-(difluoromethyl)-1-methyl-1H-pyrazol-5-yl)(4-(7-methoxybenzo[d]oxazol-2-yl)-6,7-dihydro-1H-imidazo[4,5-c]pyridin-5(4H)-yl)methanone] |
| ≤ 500 | CC(C)(F)c1nnc(C(=O)N2CCc3[nH]cnc3[C@@H]2c2nc3c(F)ccc(F)c3o2)o1 [Example 809, (R)-(4-(4,7-difluorobenzo[d]oxazol-2-yl)-6,7-dihydro-1H-imidazo[4,5-c]pyridin-5(4H)-yl)(5-(2-fluoropropan-2-yl)-1,3,4-oxadiazol-2-yl)methanone] |
| ≤ 500 | Cn1ccc(-c2nc(C(F)(F)F)c(C(=O)N3CCc4[nH]cnc4[C@H]3c3nc4cc(F)ccc4o3)o2)n1 [Example 787, (S)-(4-(5-fluorobenzo[d]oxazol-2-yl)-6,7-dihydro-1H-imidazo[4,5-c]pyridin-5(4H)-yl)(2-(1-methyl-1H-pyrazol-3-yl)-4-(trifluoromethyl)oxazol-5-yl)methanone] |

Same assay, conditions: A375 cells expressing R408W PAH; 24 hrs with compound, then 20 μM sepiapterin and 800 μM 13C9,15N-Phenylalanine for 4 hours; 13C-Tyrosine by LC-MS; average where tested multiple times

| AC50 [nM] | SMILES |
| --- | --- |
| ≥ 5000 | O=C(Cc1cnn2ccccc12)N1CCc2[nH]cnc2C1c1nc2cc(F)ccc2o1 (stereo not shown) |
| 1000 to 5000 | Cn1ncc(C(=O)N2CCc3[nH]cnc3C2c2nc3cc(F)ccc3o2)c1C(F)F (stereo not shown) |
